Converted amounts (≈) assume the structure as drawn.
Key:
[1] = system: Aspergillus fumigatus; test: Antifungal activity against Aspergillus fumigatus cgmcc 3.7795 by broth microdilution assay; format: functional
[2] = system: Candida albicans; test: Antifungal activity against Candida albicans CPCC 400523 by broth microdilution assay; format: functional
[3] = system: Candida tropicalis; test: Antifungal activity against Candida tropicalis cgmcc 2.3739 by broth microdilution assay; format: functional
[4] = system: Cryptococcus neoformans; test: Antifungal activity against Cryptococcus neoformans cgmcc 2.3161 by broth microdilution assay; format: functional
[5] = system: Candida albicans; test: Antifungal activity against Candida albicans ATCC SC5314 by broth microdilution assay; format: functional
[6] = system: Candida albicans; test: Antifungal activity against fluconazole-resistant Candida albicans 100 by broth microdilution assay; format: functional
[7] = molecular target: T1, Lanosterol 14-alpha demethylase (Candida albicans (strain SC5314 / ATCC MYA-2876) (Yeast), UniProt P10613); test: Inhibition of CYP51 in Candida albicans ATCC SC5314 assessed as lanosterol composition of the total sterol fraction in membrane at 8 ug/ml after 16 hrs by GC-MS analysis (reference value: 2.9%); set-up: scale not given: the % may be the effect or the level left; conditions: candida albicans sc5314, 16 h
T1 sequence (P10613 whole entry): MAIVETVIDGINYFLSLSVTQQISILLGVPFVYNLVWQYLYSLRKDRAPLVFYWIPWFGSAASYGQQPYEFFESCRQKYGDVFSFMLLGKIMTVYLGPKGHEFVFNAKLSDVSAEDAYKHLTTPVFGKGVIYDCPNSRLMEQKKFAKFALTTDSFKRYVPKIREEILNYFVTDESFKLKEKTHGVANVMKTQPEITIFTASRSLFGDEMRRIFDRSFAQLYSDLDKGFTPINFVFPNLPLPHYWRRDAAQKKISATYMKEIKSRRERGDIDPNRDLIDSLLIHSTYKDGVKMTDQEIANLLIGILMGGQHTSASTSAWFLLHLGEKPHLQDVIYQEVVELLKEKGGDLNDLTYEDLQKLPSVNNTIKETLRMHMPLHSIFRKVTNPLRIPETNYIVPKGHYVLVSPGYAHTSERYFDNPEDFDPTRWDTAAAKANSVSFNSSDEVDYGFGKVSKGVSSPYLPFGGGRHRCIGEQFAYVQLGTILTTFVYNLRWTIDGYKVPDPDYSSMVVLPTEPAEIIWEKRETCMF

[8] = system: Candida albicans; test: Antifungal activity against fluconazole-resistant Candida albicans 103 by broth microdilution assay; format: functional
[9] = molecular target: T1, Lanosterol 14-alpha demethylase; test: Inhibition of CYP51 in Candida albicans ATCC SC5314 assessed as obtusifoliol composition of the total sterol fraction in membrane at 8 ug/ml after 16 hrs by GC-MS analysis relative to control; set-up: scale not given: the % may be the effect or the level left; conditions: candida albicans sc5314, 16 h
[10] = molecular target: T1, Lanosterol 14-alpha demethylase; test: Inhibition of CYP51 in Candida albicans ATCC SC5314 assessed as sterol composition in membrane at 8 ug/ml after 16 hrs by GC-MS analysis (reference value: 7.5%); set-up: scale not given: the % may be the effect or the level left; conditions: candida albicans sc5314, 16 h
[11] = molecular target: T1, Lanosterol 14-alpha demethylase; test: Inhibition of CYP51 in Candida albicans ATCC SC5314 assessed as ergosterol composition of the total sterol fraction in membrane at 8 ug/ml after 16 hrs by GC-MS analysis (reference value: 89.6%); set-up: scale not given: the % may be the effect or the level left; conditions: candida albicans sc5314, 16 h
[12] = molecular target: T1, Lanosterol 14-alpha demethylase; test: Inhibition of CYP51 in Candida albicans ATCC SC5314 assessed as eburicol composition of the total sterol fraction in membrane at 8 ug/ml after 16 hrs by GC-MS analysis relative to control; set-up: scale not given: the % may be the effect or the level left; conditions: candida albicans sc5314, 16 h
[13] = system: Cryptococcus neoformans; test: Antifungal activity against Cryptococcus neoformans by NCCLS method; format: functional
[14] = system: Candida albicans; test: Antifungal activity against Candida albicans by NCCLS method; format: functional

| SMILES | MIC [1] [µg/mL] | MIC [2] [µg/mL] | MIC [3] [µg/mL] | MIC [4] [µg/mL] | MIC [5] [µg/mL] | MIC [6] [µg/mL] | Activity [7] [%] | MIC [8] [µg/mL] | Activity [9] [%] | Activity [10] [%] | Activity [11] [%] | Activity [12] [%] | MIC [13] [µg/mL] | MIC [14] [µg/mL] |
| --- | --- | --- | --- | --- | --- | --- | --- | --- | --- | --- | --- | --- | --- | --- |
| CCNC(=O)[C@H](Cn1ccnc1)NC(=O)c1nc2ccc(Br)cc2s1 | > 64 | > 64 | > 64 | > 64 | > 64 | – | – | – | – | – | – | – | – | – |
| Cc1ccc2nc(C(=O)N[C@@H](Cn3ccnc3)C(=O)OC(C)C)sc2c1 | > 64 | 4 (≈ 10.7 µM) | 1 (≈ 2.68 µM) | 2 (≈ 5.37 µM) | 0.5 (≈ 1.34 µM) | – | – | – | – | – | – | – | – | – |
| Cc1ccc2nc(C(=O)N[C@@H](Cn3ccnc3)C(=O)OCC(C)C)sc2c1 | > 64 | 2 (≈ 5.17 µM) | 0.5 (≈ 1.29 µM) | 0.5 (≈ 1.29 µM) | 0.25 (≈ 0.647 µM) | – | – | – | – | – | – | – | – | – |
| CC(C)COC(=O)[C@@H](Cn1ccnc1)NC(=O)c1nc2ccc(Br)cc2s1 | > 64 | 0.25 (≈ 0.554 µM) | 0.125 (≈ 0.277 µM) | 0.5 (≈ 1.11 µM) | 0.125 (≈ 0.277 µM) | – | – | – | – | – | – | – | – | – |
| CCOC(=O)[C@H](Cn1ccnc1)NC(=O)c1nc2ccc(C)cc2s1 | > 64 | > 64 | 4 (≈ 11.2 µM) | 8 (≈ 22.3 µM) | 2 (≈ 5.58 µM) | – | – | – | – | – | – | – | – | – |
| CC(C)COC(=O)[C@H](Cn1ccnc1)NC(=O)c1nc2ccc(F)cc2s1 | > 64 | 16 (≈ 41 µM) | 8 (≈ 20.5 µM) | 4 (≈ 10.2 µM) | 0.5 (≈ 1.28 µM) | – | – | – | – | – | – | – | – | – |
| CCCOC(=O)[C@H](Cn1ccnc1)NC(=O)c1nc2ccc(C)cc2s1 | > 64 | 4 (≈ 10.7 µM) | 0.5 (≈ 1.34 µM) | 2 (≈ 5.37 µM) | 0.5 (≈ 1.34 µM) | – | – | – | – | – | – | – | – | – |
| CC(C)COC(=O)[C@H](Cn1ccnc1)NC(=O)c1nc2c(C(F)(F)F)cccc2s1 | > 64 | > 64 | > 64 | > 64 | > 64 | – | – | – | – | – | – | – | – | – |
| CC(C)COC(=O)[C@H](Cn1ccnc1)NC(=O)c1nc2ccc(Cl)cc2s1 | > 64 | 2 (≈ 4.92 µM) | 0.25 (≈ 0.614 µM) | 1 (≈ 2.46 µM) | 0.125 (≈ 0.307 µM) | – | – | – | – | – | – | – | – | – |
| Cc1cccc2sc(C(=O)N[C@@H](Cn3ccnc3)C(=O)OCC(C)C)nc12 | > 64 | > 64 | > 64 | > 64 | > 64 | – | – | – | – | – | – | – | – | – |
| CCCOC(=O)[C@H](Cn1ccnc1)NC(=O)c1nc2ccc(Cl)cc2s1 | > 64 | 2 (≈ 5.09 µM) | 1 (≈ 2.55 µM) | 2 (≈ 5.09 µM) | 0.5 (≈ 1.27 µM) | – | – | – | – | – | – | – | – | – |
| CC(C)OC(=O)[C@H](Cn1ccnc1)NC(=O)c1nc2ccc(F)cc2s1 | > 64 | 16 (≈ 42.5 µM) | 16 (≈ 42.5 µM) | > 64 | 4 (≈ 10.6 µM) | – | – | – | – | – | – | – | – | – |
| CC(C)COC(=O)[C@H](Cn1ccnc1)NC(=O)c1nc2ccc(Br)cc2s1 | > 64 | 0.25 (≈ 0.554 µM) | 0.25 (≈ 0.554 µM) | 0.5 (≈ 1.11 µM) | 0.125 (≈ 0.277 µM) | 16 (≈ 35.4 µM) | 18.8 | 8 (≈ 17.7 µM) | 6.4 | 8.6 | 2.7 | 63.4 | – | – |
| COC(=O)[C@H](Cn1ccnc1)NC(=O)c1nc2ccc(C)cc2s1 | > 64 | > 64 | 16 (≈ 46.5 µM) | 8 (≈ 23.2 µM) | 8 (≈ 23.2 µM) | – | – | – | – | – | – | – | – | – |
| COC(=O)[C@H](Cn1ccnc1)NC(=O)c1nc2ccccc2s1 | – | – | – | – | – | – | – | – | – | – | – | – | 2 (≈ 6.05 µM) | 8 (≈ 24.2 µM) |
| COC(=O)[C@H](Cn1ccnc1)NC(=O)c1nc2ccc(Cl)cc2s1 | > 64 | 16 (≈ 43.9 µM) | 8 (≈ 21.9 µM) | 32 (≈ 87.7 µM) | 8 (≈ 21.9 µM) | – | – | – | – | – | – | – | – | – |
| COc1ccc2nc(C(=O)N[C@@H](Cn3ccnc3)C(=O)OC(C)C)sc2c1 | > 64 | 4 (≈ 10.3 µM) | 2 (≈ 5.15 µM) | 32 (≈ 82.4 µM) | 2 (≈ 5.15 µM) | – | – | – | – | – | – | – | – | – |
| CNC(=O)[C@H](Cn1ccnc1)NC(=O)c1nc2ccc(Br)cc2s1 | > 64 | > 64 | > 64 | > 64 | > 64 | – | – | – | – | – | – | – | – | – |
| CC(C)OC(=O)[C@H](Cn1ccnc1)NC(=O)c1nc2ccc(Br)cc2s1 | > 64 | 0.5 (≈ 1.14 µM) | 0.5 (≈ 1.14 µM) | 2 (≈ 4.57 µM) | 0.125 (≈ 0.286 µM) | 32 (≈ 73.2 µM) | – | 16 (≈ 36.6 µM) | – | – | – | – | – | – |
| CC(C)OC(=O)[C@@H](Cn1ccnc1)NC(=O)c1nc2ccc(Br)cc2s1 | > 64 | 0.5 (≈ 1.14 µM) | 1 (≈ 2.29 µM) | 2 (≈ 4.57 µM) | 0.125 (≈ 0.286 µM) | – | – | – | – | – | – | – | – | – |
| CC(C)OC(=O)[C@H](Cn1ccnc1)NC(=O)c1nc2ccc(Cl)cc2s1 | > 64 | 2 (≈ 5.09 µM) | 1 (≈ 2.55 µM) | 2 (≈ 5.09 µM) | 0.25 (≈ 0.636 µM) | – | – | – | – | – | – | – | – | – |
| CC(C)COC(=O)[C@H](Cn1ccnc1)NC(=O)c1nc2c(Cl)cccc2s1 | > 64 | > 64 | > 64 | > 64 | > 64 | – | – | – | – | – | – | – | – | – |
| CCOC(=O)[C@H](Cn1ccnc1)NC(=O)c1nc2ccc(Cl)cc2s1 | > 64 | 4 (≈ 10.6 µM) | 2 (≈ 5.28 µM) | 8 (≈ 21.1 µM) | 0.5 (≈ 1.32 µM) | – | – | – | – | – | – | – | – | – |
| CC(C)COC(=O)[C@H](Cn1ccnc1)NC(=O)c1nc2ccc(C(F)(F)F)cc2s1 | > 64 | 2 (≈ 4.54 µM) | 0.5 (≈ 1.14 µM) | 0.5 (≈ 1.14 µM) | 0.125 (≈ 0.284 µM) | 32 (≈ 72.7 µM) | – | 32 (≈ 72.7 µM) | – | – | – | – | – | – |
| COc1ccc2nc(C(=O)N[C@@H](Cn3ccnc3)C(=O)OCC(C)C)sc2c1 | > 64 | 4 (≈ 9.94 µM) | 1 (≈ 2.48 µM) | 8 (≈ 19.9 µM) | 2 (≈ 4.97 µM) | – | – | – | – | – | – | – | – | – |
| CC(C)OC(=O)[C@H](Cn1ccnc1)NC(=O)c1nc2ccc(C(F)(F)F)cc2s1 | > 64 | 2 (≈ 4.69 µM) | 1 (≈ 2.35 µM) | 2 (≈ 4.69 µM) | 0.125 (≈ 0.293 µM) | – | – | – | – | – | – | – | – | – |
| OC(Cn1cncn1)(Cn1cncn1)c1ccc(F)cc1F [FLUCONAZOLE] | > 64 | 1 (≈ 3.27 µM) | 1 (≈ 3.27 µM) | 4 (≈ 13.1 µM) | 0.5 (≈ 1.63 µM) | > 64 | 18.3 | > 64 | 6.9 | 4.8 | 2.1 | 67.9 | – | – |
| CCC(C)n1ncn(-c2ccc(N3CCN(c4ccc(OCC5COC(Cn6cncn6)(c6ccc(Cl)cc6Cl)O5)cc4)CC3)cc2)c1=O (stereo not given) [ITRACONAZOLE] | 4 (≈ 5.67 µM) | 0.5 (≈ 0.709 µM) | 0.5 (≈ 0.709 µM) | 1 (≈ 1.42 µM) | 0.125 (≈ 0.177 µM) | – | – | – | – | – | – | – | – | – |

Reference: ChEMBL document CHEMBL4028803, “Design, synthesis, and structure-activity relationship studies of benzothiazole derivatives as antifungal agents” (Eur J Med Chem, 2016)
